Experiments:
[1] = xn = mol fraction of the nth substance listed; details: 100 kPa, Liquid; for speed of sound: Frequency=3 MHz, Single path-length method; for mass density: Vibrating tube method
[2] = refractive index (Na D-line) (dimensionless); xn = mol fraction of the nth substance listed; details: 100 kPa, Liquid, Standard Abbe refractometry

CN(C)CCCO [3-dimethylamino-1-propanol] + C[S+](C)[O-]
Details	mass density, [1] [kg/m3]	refractive index, [2]	speed of sound, [1] [m/s]
293.15 K, x2 = 0	885	1.437	1395.8
293.15 K, x2 = 0.0517	891	1.438	1397.6
293.15 K, x2 = 0.0986	898	1.439	1398.4
293.15 K, x2 = 0.1998	911	1.442	1401.4
293.15 K, x2 = 0.3	927	1.444	1405.2
293.15 K, x2 = 0.3998	944	1.447	1411.3
293.15 K, x2 = 0.5031	963	1.451	1418.8
293.15 K, x2 = 0.5988	983	1.455	1428.3
293.15 K, x2 = 0.6998	1007	1.46	1441.3
293.15 K, x2 = 0.7918	1032	1.465	1456
293.15 K, x2 = 0.899	1065	1.472	1478
293.15 K, x2 = 0.9494	1082	1.476	1489.6
303.15 K, x2 = 0	877	1.433	1358.8
303.15 K, x2 = 0.0517	883	1.434	1360.9
303.15 K, x2 = 0.0986	889	1.435	1361.8
303.15 K, x2 = 0.1998	903	1.437	1365.3
303.15 K, x2 = 0.3	918	1.44	1369.9
303.15 K, x2 = 0.3998	935	1.443	1375.7
303.15 K, x2 = 0.5031	954	1.447	1383.9
303.15 K, x2 = 0.5988	974	1.451	1393.6
303.15 K, x2 = 0.6998	998	1.456	1406.9
303.15 K, x2 = 0.7918	1023	1.46	1421.8
303.15 K, x2 = 0.899	1055	1.467	1444.5
303.15 K, x2 = 0.9494	1072	1.471	1455.9
313.15 K, x2 = 0	869	1.429	1322.1
313.15 K, x2 = 0.0517	875	1.43	1324.4
313.15 K, x2 = 0.0986	881	1.431	1325.4
313.15 K, x2 = 0.1998	895	1.433	1328.9
313.15 K, x2 = 0.3	910	1.436	1334.4
313.15 K, x2 = 0.3998	926	1.439	1340.7
313.15 K, x2 = 0.5031	946	1.443	1349.3
313.15 K, x2 = 0.5988	965	1.447	1359.3
313.15 K, x2 = 0.6998	989	1.451	1372.9
313.15 K, x2 = 0.7918	1013	1.456	1388.1
313.15 K, x2 = 0.899	1046	1.463	1410.9
313.15 K, x2 = 0.9494	1062	1.467	1422.3
323.15 K, x2 = 0	860	1.425	1285.7
323.15 K, x2 = 0.0517	867	1.426	1288.2
323.15 K, x2 = 0.0986	873	1.427	1289.5
323.15 K, x2 = 0.1998	886	1.429	1293.8
323.15 K, x2 = 0.3	901	1.432	1299.3
323.15 K, x2 = 0.3998	918	1.435	1306.1
323.15 K, x2 = 0.5031	937	1.439	1315.1
323.15 K, x2 = 0.5988	956	1.443	1325.5
323.15 K, x2 = 0.6998	980	1.447	1339.4
323.15 K, x2 = 0.7918	1004	1.452	1354.7
323.15 K, x2 = 0.899	1036	1.459	1377.6
323.15 K, x2 = 0.9494	1052	1.462	1389

Reference: the NIST ThermoML archive (doi:10.1016/j.jct.2018.02.018)
